Laboratory results as given in patent publication US12018023B2 (NERVIANO MEDICAL SCIENCES S.R.L., priority 2018, dated 2024).

What was measured:
Type in all cases: biochemical
[1] = biological target: T1, IDH2^R172K (Homo sapiens, UniProt P48735, R172K); test: NADPH depletion assay, IDH2 R172K
T1 construct: purchased not specified
T1 sequence (P48735 40-452 R172K): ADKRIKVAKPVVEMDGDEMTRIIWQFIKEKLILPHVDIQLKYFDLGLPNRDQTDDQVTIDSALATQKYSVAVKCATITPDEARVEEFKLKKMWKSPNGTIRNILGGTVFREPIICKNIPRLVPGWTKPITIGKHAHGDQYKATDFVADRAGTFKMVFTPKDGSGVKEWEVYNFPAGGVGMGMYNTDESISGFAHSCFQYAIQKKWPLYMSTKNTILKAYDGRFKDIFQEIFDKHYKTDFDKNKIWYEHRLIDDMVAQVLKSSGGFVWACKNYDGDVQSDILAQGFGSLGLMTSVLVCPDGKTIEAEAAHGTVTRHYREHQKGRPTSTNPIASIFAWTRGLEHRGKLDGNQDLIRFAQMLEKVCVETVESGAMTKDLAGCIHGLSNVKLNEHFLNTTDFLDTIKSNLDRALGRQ
Description: IDH mutated enzyme activity converting alpha-ketoglutarate to 2-hydroxyglutaric acid is measured using a NADPH depletion assay. In the assay the remaining cofactor is measured at the end of the reaction with the addition of a catalytic excess of diaphorase and resazurin, to generate a fluorescent signal in proportion to the amount of NADPH remaining. IDH1 WT enzyme as well as mutated isoforms IDH1^R132H, IDH1^R132C, and IDH^2R172K enzymes are commercially available proteins (see e.g. Sino Biological, Abcam, Active Motif or Creative BioMart).
IDH1^R132H homodimer enzyme are diluted to 8 nM, in 10 μL of Assay Buffer (150 mM NaCl, 50 mM Tris-HCl pH 7.6, 10 mM MgCl2, 0.001% Triton X-100, 4 mM β-mercaptoethanol); 0.2 uL of test compound, previously serially diluted 1 to 3, >10 experimental points from 1 mM in DMSO, is added and the mixture is incubated for 15 minutes at room temperature. The reaction is started with the addition of 10 μL of Substrate Mix (12 uM NADPH, 3.4 mM alpha-ketoglutarate in Assay Buffer) and the mixture is incubated for 60 minutes at room temperature. The reaction is terminated with the addition of 5 μl of Detection Buffer (100 μg/mL diaphorase, 30 μM resazurin, in IX Assay Buffer), and is incubated for 15 minute before reading on a ViewLux as platereader at Ex544/Em590.
Compounds are assayed for their activity against IDH2^R172K following the same assay as above with the following modifications: IDH2^R172K and alpha-ketoglutarate final concentrations in the Assay Buffer is 16 nM and 0.55 mM, respectively.

[2] = biological target: T2, IDH1^R132H homodimer enzyme (Homo sapiens, UniProt O75874, R132H); test: NADPH depletion assay, IDH1 R132H
T2 construct: purchased not specified
In short: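 IDH1 R132H enzyme (8 nM as diluted) in Tris-HCl pH 7.6 with 10 mM MgCl2, 0.001% Triton X-100 and 4 mM β-mercaptoethanol is preincubated 15 min at RT with compound. Substrate mix (12 uM NADPH, 3.4 mM α-ketoglutarate) is added for 60 min; remaining NAD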

[3] = biological target: T3, IDH1^R132C (Homo sapiens, UniProt O75874, R132C); test: NADPH depletion assay, IDH1 R132C
T3 construct: purchased not specified
In short: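 Fluorescence readout (Ex544/Em590) of NADPH left after diaphorase/resazurin addition. Alpha-ketoglutarate 0.14 mM final, enzyme 2 nM final; compound preincubation 15 min, then 60 min reaction, both at room temperature, pH 7.6 Tris buffer.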

T2 sequence (O75874 whole entry R132H): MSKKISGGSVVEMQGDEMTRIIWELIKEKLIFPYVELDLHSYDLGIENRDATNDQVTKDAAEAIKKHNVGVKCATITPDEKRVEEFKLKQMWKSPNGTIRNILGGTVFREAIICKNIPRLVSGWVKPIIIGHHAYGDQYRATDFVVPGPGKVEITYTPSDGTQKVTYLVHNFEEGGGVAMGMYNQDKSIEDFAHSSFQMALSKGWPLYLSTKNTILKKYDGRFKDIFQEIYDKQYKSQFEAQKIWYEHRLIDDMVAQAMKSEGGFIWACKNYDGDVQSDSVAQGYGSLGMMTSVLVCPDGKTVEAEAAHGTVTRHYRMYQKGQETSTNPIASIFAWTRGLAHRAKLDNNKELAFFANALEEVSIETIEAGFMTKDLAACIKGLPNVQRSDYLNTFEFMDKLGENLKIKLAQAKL
T3 sequence (O75874 whole entry R132C): as the sequence (O75874 whole entry R132H) above, with H132C counted along it

| SMILES | IC50 [1] [nM] | IC50 [2] [nM] | IC50 [3] [nM] |
| --- | --- | --- | --- |
| C=CC(=O)N1CC=C(c2ccc([C@H](C)Nc3ncc4ccc(=O)n([C@@H](C)C(C)C)c4n3)nc2)CC1 [cpd 194, 2-{[(1S)-1-(1′-acryloyl-1′,2′,3′,6′-tetrahydro-3,4′-bipyridin-6-yl)ethyl]amino}-8-[(2S)-3-methylbutan-2-yl]pyrido [2,3-d]pyrimidin-7(8H)-one] | 1790 | 338 | 200 |
| C[C@H](Nc1ncc2ccc(=O)n(CC(C)(C)CO)c2n1)c1ccc(Br)cc1 [cpd 35, 2-{[(1S)-1-(4-bromophenyl)ethyl]amino}-8-(3-hydroxy-2,2-dimethylpropyl)pyrido[2,3-d]pyrimidin-7(8H)-one] | 5050 | 211 | – |
| CCn1c(=O)ccc2cnc(N[C@@H](C)C3CCCCC3)nc21 [cpd 12, 2-{[(1S)-1-cyclohexylethyl]amino}-8-ethylpyrido[2,3-d]pyrimidin-7(8H)-one] | 5020 | 3480 | 1780 |
| CC(C)Cn1c(=O)ccc2cnc(N[C@@H](C)c3ccc(CN4CCC(F)(F)CC4)cc3)nc21 [cpd 95, 2-{[(1S)-1-{4-[(4,4-difluoropiperidin-1-yl)methyl]phenyl}ethyl]amino}-8-(2-methylpropyl)pyrido[2,3-d]pyrimidin-7(8H)-one] | 5160 | 425 | 162 |
| C[C@H](Nc1ncc2ccc(=O)n(Cc3ccccc3F)c2n1)c1ccc(Cl)cc1 [cpd 22, 2-{[(1S)-1-(4-chlorophenyl)ethyl]amino}-8-(2-fluorobenzyl)pyrido[2,3-d]pyrimidin-7(8H)-one] | 2990 | 451 | 195 |
| C[C@H](Nc1ncc2ccc(=O)n(CC(C)(C)C)c2n1)c1ccc(CN2CCC(F)(F)CC2)cc1F [cpd 152, 2-{[(1S)-1-{4-[(4,4-difluoropiperidin-1-yl)methyl]-2-fluorophenyl}ethyl]amino}-8-(2,2-dimethylpropyl)pyrido [2,3-d]pyrimidin-7(8H)-one] | 5620 | 158 | 65 |
| C[C@H](Nc1ncc2ccc(=O)n(Cc3cccc(C(F)(F)F)c3)c2n1)c1ccc(Cl)cc1 [cpd 24, 2-{[(1S)-1-(4-chlorophenyl)ethyl]amino}-8-[3-(trifluoromethyl)benzyl]pyrido[2,3-d]pyrimidin-7(8H)-one] | 2960 | 3530 | 1720 |
| C[C@H](Nc1ncc2ccc(=O)n(CC3CC3)c2n1)c1ccc(Cl)cc1 [cpd 20, 2-{[(1S)-1-(4-chlorophenyl)ethyl]amino}-8-(cyclopropylmethyl)pyrido[2,3-d]pyrimidin-7(8H)-one] | 5020 | 740 | 332 |
| C=CC(=O)N1CCN(Cc2ccc([C@H](C)Nc3ncc4ccc(=O)n([C@@H](C)CF)c4n3)cc2)CC1 [cpd 198, 2-{[(1S)-1-{4-[(4-acryloylpiperazin-1-yl)methyl]phenyl}ethyl]amino}-8-[(2S)-1-fluoropropan-2-yl]pyrido[2,3-d]pyrimidin-7(8H)-one] | 248 | 132 | 401 |
| COc1cccc(Cn2c(=O)ccc3cnc(N[C@@H](C)c4ccc(Cl)cc4)nc32)c1 [cpd 30, 2-{[(1S)-1-(4-chlorophenyl)ethyl]amino}-8-(3-methoxybenzyl)pyrido[2,3-d]pyrimidin-7(8H)-one] | 2520 | 1340 | 406 |
| COC(=O)c1ccc([C@H](C)Nc2ncc3ccc(=O)n(CC(C)(C)C)c3n2)cc1 [cpd 11, methyl 4-[(1S)-1-{[8-(2,2-dimethylpropyl)-7-oxo-pyrido[2,3-d]pyrimidin-2-yl]amino}ethyl]benzoate] | 6100 | 362 | 181 |
| C[C@H](Nc1ncc2ccc(=O)n(Cc3ccc(OC(F)(F)F)cc3)c2n1)c1ccc(Cl)cc1 [cpd 26, 2-{[(1S)-1-(4-chlorophenyl)ethyl]amino}-8-[4-(trifluoromethoxy)benzyl]pyrido[2,3-d]pyrimidin-7(8H)-one] | 2200 | 2360 | 1260 |
| CC(C)[C@H](C)n1c(=O)ccc2cnc(N[C@@H](C)c3ccc(-c4ccnc(F)c4)cc3)nc21 [cpd 166, 2-({(1S)-1-[4-(2-fluoropyridin-4-yl)phenyl]ethyl}amino)-8-[(2S)-3-methylbutan-2-yl]pyrido[2,3-d]pyrimidin-7(8H)-one] | 7570 | 179 | 93 |
| C[C@H](Nc1ncc2ccc(=O)n(Cc3ccccc3)c2n1)c1ccc(Cl)cc1 [cpd 16, 8-benzyl-2-{[(1S)-1-(4-chlorophenyl)ethyl]amino}pyrido[2,3-d]pyrimidin-7(8H)-one] | 2700 | 1000 | 460 |
| CC[C@H](Nc1ncc2ccc(=O)n(CC(C)(C)C)c2n1)c1ccccc1 [cpd 70, 8-(2,2-dimethylpropyl)-2-{[(1S)-1-phenylpropyl]amino}pyrido[2,3-d]pyrimidin-7(8H)-one] | – | 478 | 177 |
| CC(C)[C@H](C)n1c(=O)ccc2cnc(N[C@@H](C)c3ccc(CN4CCN(C)C(=O)C4)cc3)nc21 [cpd 188, 8-[(2S)-3-methylbutan-2-yl]-2-{[(1S)-1-{4-[(4-methyl-3-oxopiperazin-1-yl)methyl]phenyl}ethyl]amino}-pyrido [2,3-d]pyrimidin-7(8H)-one] | – | 330 | 120 |
| CCn1c(=O)ccc2cnc(N[C@@H](C)c3ccc(C(=O)N4CCN(C(=O)OC(C)(C)C)CC4)cc3)nc21 [cpd 189, tert-butyl 4-(4-{(1S)-1-[(8-ethyl-7-oxo-7,8-dihydropyrido[2,3-d]pyrimidin-2-yl)amino]ethyl}benzoyl)piperazine-1-carboxylate] | – | 3770 | 811 |
| C[C@H](Nc1ncc2ccc(=O)n(CC(C)(C)C)c2n1)c1ccc(CN2CCN(C(=O)C3CC3)CC2)cc1 [cpd 158, 2-{[(1S)-1-(4-{[4-(cyclopropylcarbonyl)piperazin-1-yl]methyl}phenyl)ethyl]amino}-8-(2,2-dimethylpropyl) pyrido[2,3-d]pyrimidin-7(8H)-one] | – | 126 | 40 |
| COC(=O)c1ccc([C@H](C)Nc2ncc3ccc(=O)n(Cc4cc(F)cc(F)c4)c3n2)cc1 [cpd 7, methyl 4-[(1S)-1-{[8-(3,5-difluorobenzyl)-7-oxo-pyrido[2,3-d]pyrimidin-2-yl]amino}ethyl]benzoate] | – | 2960 | 1410 |
| C[C@H](Nc1ncc2ccc(=O)n(Cc3ccc(F)cc3F)c2n1)c1ccc(Cl)cc1 [cpd 25, 2-{[(1S)-1-(4-chlorophenyl)ethyl]amino}-8-(2,4-difluorobenzyl)pyrido[2,3-d]pyrimidin-7(8H)-one] | – | 1940 | 524 |
| CC(C#N)n1c(=O)ccc2cnc(N[C@@H](C)c3ccc(CN4CCCC(F)(F)C4)cc3)nc21 (stereo partly drawn) [cpd 64, 2-[2-{[(1S)-1-{4-[(3,3-difluoropiperidin-1-yl)methyl]phenyl}ethyl]amino}-7-oxopyrido[2,3-d]pyrimidin-8(7H)-yl]propanenitrile] | – | 210 | 133 |
| CC(C)(C)Cn1c(=O)ccc2cnc(NC3(c4ccccc4)CCC3)nc21 [cpd 43, 8-(2,2-dimethylpropyl)-2-[(1-phenylcyclobutyl)amino]pyrido[2,3-d]pyrimidin-7(8H)-one] | – | 1640 | 1050 |
| CC(C)[C@H](C)n1c(=O)ccc2cnc(N[C@@H](C)c3ccc(N4CCN(C(=O)OCc5ccccc5)CC4)cc3)nc21 [cpd 174, Benzyl-4-{4-[(1S)-1-({8-[(2S)-3-methylbutan-2-yl]-7-oxo-7,8-dihydropyrido[2,3-d]pyrimidin-2-yl}amino)ethyl]phenyl}piperazine-1-carboxylate] | – | 42 | 32 |
